“Also recorded” adds a separate entry of the source. Where two headings read alike, the source gives them in different places. Where a SMILES comes first, the peptide text is derived from it.
How the values were obtained:
[1] = molecular target: binding of E. coli δ to E. coli β (Escherichia coli, UniProt P0A988); test: biochemical
[2] = molecular target: T1, binding of E. coli α to E. coli β (Escherichia coli, UniProt P0A988); test: biochemical
T1 construct: made in house
Procedure: Recombinantly expressed wild type E. coli α subunit was purified and coated onto 96 well microtitre plates (Falcon flexible plates, Becton Dickinson) at 20 μg/ml in 100 mM Na2CO3, pH9.5 (50 μl/well, 4° C. overnight or 2 h, RT (RT). The plates were washed in WB3 (20 mM Tris (pH 7.5), 0.1 mM EDTA containing 0.05% v/v Tween 20). This buffer was used in all wash steps through out the assay. The plates were then blocked with “blotto” (5% skim milk powder in WB3, 100 μl/well, RT) until required. Immediately before use the plates were washed.
The purified synthetic peptides and β subunit were diluted in BB14 (20 mM Tris, pH 7.5, 10 mM MgCl2, 0.1 mM EDTA). Purified synthetic peptides with concentrations of 9.3-300 and 1000 μg/ml were allowed to complex with purified wild type β subunit (5 μg/ml) in a 96 well microtitre plate (Sarsted, Adelaide, Australia) pre-treated with “blotto” (30 min, RT). The reaction volume was 120 μl. The β subunit also was incubated in the absence of peptide or in the presence of the α subunit at 76.5 (μg/ml in BB14. All samples were incubated for 1 h (RT). Two 50 μl samples were transferred from each well to a corresponding well of the washed and “blocked” α subunit coated plates, and further incubated for 30 min (RT).
The plates were washed and treated with rabbit serum raised to the β subunit. The anti-serum was diluted 1:1000 in WB3 containing 10% “blotto”, dispensed at 50 μl/well and incubated for 12 min (RT). The plates were washed again and treated with sheep anti-rabbit Ig-HRP conjugate (Silenus, Melbourne, Australia) diluted 1:1000 in WB3 containing 10% “blotto” (50 μl/well). The plate was incubated for 12 min (RT). After a final washing step, 1 mM 2,2′-azino-bis (3-ethylbenzthiazoline-6-sulfonic acid) was added (110 μl/well). Colour development was assessed at 405 nm using a plate reader (Multiskan Ascent, Labsystems, Sweden).
For the CMS compounds in the of α:β assays, buffer BB37 replaced buffer BB14. Buffer BB37 contains 10 mM MnCl2 instead of the 10 mM MgCl2 used in BB14. The buffer conditions were changed to improve the reproducibility and sensitivity of the α:β binding assay.
Compounds from the CMS library were dissolved in DMSO at 1 mg/ml in a 96 well tray format. A corresponding slave plate was prepared by adding 115 μl of BB37. Dissolved compounds (5 μl) from the master plate was added to the corresponding well in slave plates giving a final concentration of 41.7 μg/ml.
Compounds were assayed for inhibition of the binding of E. coli α to E. coli β as described in Example 13.
Peptides were assayed for inhibition of the binding of E. coli α to E. coli β as described in Example 6 with the exception that buffer BB37 replaced buffer BB14 in the alpha:beta binding assay. As noted above, BB37 contains 10 mM MnCl2 instead of 10 mM MgCl2 used in BB14. Again, the change in buffer conditions was made to improve the reproducibility and sensitivity of the α:β binding assay.

[3] = system: Staphylococcus aureus ATCC 25923; test: Bacterial growth inhibition screen (A620); type: cell-based; conditions: overnight 35° C.; for inhibition at 50 µg/mL: ATCC25923, compound 50 μg/ml, read-out: inhibition of growth of S. aureus
Procedure: (§1) Compounds with high similarity scores, or at the intersection of the results of searches using a number of different approaches, and available from the NCI or Molecular Science libraries were obtained and screened for inhibition of growth of E. coli ATCC 35218, Klebsiella pneumoniae ATCC 13885, Pseudomonas aeruginosa ATCC 27853, Staphylococcus aureus ATCC 25923 and Enterococcus faecalis ATCC 33186 as follows. Compounds were supplied dissolved in DMSO at 1 mg/ml in a 96 well tray format. Six corresponding slave plates were prepared by adding 85 μl of sterile water, and 100 μl of two times Muller Hinton broth. Dissolved compounds (5 μl) from the master plate was added to the corresponding well in slave plates giving a final concentration of 50 μg/ml.
(§2) Plates were then transferred to a PC2 Laboratory for inoculation with selected bacterial strains. The strains are freshly grown and diluted in normal saline to 0.5 McFarland Standard (NCCLS Performance standard for Dilution Antimicrobial Susceptibility Testing M7-A4 January 1997). This solution was further diluted 1:10 in normal saline to form the bacterial inoculation culture. 10 μl was used to inoculate each well. Plates were covered and placed in a 35° C. incubator over night before A620 was determined. Tetracycline was used as a standard antimicrobial compound.

[4] = system: Enterococcus faecalis ATCC 33186; test: Bacterial growth inhibition screen (A620); type: cell-based; conditions: overnight 35° C.; for inhibition at 50 µg/mL: ATCC33186, compound 50 μg/ml, read-out: inhibition of growth of E. faecalis
Procedure: as §1, §2

B. subtilis IH 6140 = test: Inhibition of growth of B. subtilis by peptides (OD620 growth curve); type: cell-based, Bacillus subtilis
Procedure: B. subtilis IH 6140 was subcultured from a fresh plate into a 10 ml tube containing 5 ml of Oxoid Mueller-Hinton broth (Oxoid code CM405 Oxoid Manual 7th edition 1995 pg 2-161). This culture was shaken at 120 rpm at 37° C. for 21 h and then diluted in normal saline to 0.5 McFarland Standard (NCCLS Performance standard for Dilution Antimicrobial Susceptibility Testing M7-A4 January 1997). This suspension was further diluted 1:5 in normal saline to form the bacterial starter culture. Peptides were tested at a final concentration of 1 mg/ml in a flat bottom 96 well plate (Nunclon surface, sterile Nalge Nunc International). Wells were prepared by using 100 μl of double strength Mueller-Hinton Broth, an appropriate volume of peptide and the final volume made up to 190 μl. The wells were then inoculated with 10 μl of the starter culture.
The plate was sealed with a clear adhesive plate seal (Abgene House). It was then placed in a Labsystems Multiskan Ascent spectrophotometer. The plate was incubated at 37° C. with shaking at 120 rpm every alternate 10 seconds. The absorbence at 620 nm was measured every 30 min for 16 h.

[5] = system: Pseudomonas aeruginosa ATCC 27853; test: Bacterial growth inhibition screen (A620); type: cell-based; conditions: ATCC27853, test conc 35 μg/ml, overnight 35° C., read-out: percent growth inhibition P. aeruginosa
Procedure: as §1, §2

E. coli ATCC 35218 = test: Bacterial growth inhibition screen (A620); type: cell-based; conditions: Escherichia coli, ATCC35218, test conc 35 μg/ml, overnight 35° C., read-out: percent growth inhibition E. coli
Procedure: as §1, §2

[6] = system: Klebsiella pneumoniae ATCC 13885; test: Bacterial growth inhibition screen (A620); type: cell-based; conditions: ATCC13885, test conc 35 μg/ml, overnight 35° C., read-out: percent growth inhibition K. pneumoniae
Procedure: as §1, §2

[7] = Table 21, Molsci (CMS) compounds, buffer BB37 (10 mM MnCl2), read-out: IC50 α-binding
[8] = B. subtilis IH 6140, peptide 1 mg/ml, OD620 over 16 h

T1 sequence (P0A988 whole entry): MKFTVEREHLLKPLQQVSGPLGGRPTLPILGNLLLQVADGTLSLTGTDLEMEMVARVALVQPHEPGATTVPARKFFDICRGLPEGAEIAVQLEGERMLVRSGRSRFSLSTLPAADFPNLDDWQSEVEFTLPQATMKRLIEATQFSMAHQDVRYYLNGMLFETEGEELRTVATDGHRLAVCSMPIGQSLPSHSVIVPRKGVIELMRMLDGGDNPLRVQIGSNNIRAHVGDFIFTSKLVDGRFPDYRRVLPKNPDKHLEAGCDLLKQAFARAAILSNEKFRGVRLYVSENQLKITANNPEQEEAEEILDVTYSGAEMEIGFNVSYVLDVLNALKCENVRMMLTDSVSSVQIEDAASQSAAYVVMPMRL
Chain of binding of E. coli δ to E. coli β (P0A988 whole entry): as above

With `CCC/C(=N\OC/C(Cl)=C/c1ccc(Cl)cc1)C1C(=O)CC(C)(C)CC1=O` [AOC-07877] the IC50 ([1]; IC50 δ-binding, Table 21) was 90 µM, the “inhibition of the binding of δ to β” value ([1]; plate binding assay as in Example 6) was “significantly inhibited; also recorded: significant inhibitory activity” and the IC50 [2, 7] was 270 µM. It also gave an inhibition at 50 µg/mL [3] of over 50% and an inhibition at 50 µg/mL [4] of over 50%.
Compound `CCC/C(=N\OC/C(C)=C(\O)c1ccc(C)cc1)C1C(=O)CC(CC)(CC)CC1=O` [AOC-08944] has an IC50 ([1]; IC50 δ-binding, Table 21) of over 300 µM, an IC50 [2, 7] of over 300 µM and an inhibition at 50 µg/mL [3] of over 50%. The inhibition at 50 µg/mL [4] was over 50%.
`CC(C)C[C@H](NC(=O)[C@@H](N)CC(=O)O)C(=O)N[C@@H](Cc1ccccc1)C(=O)O` [DLF] (H-Asp-Leu-Phe-OH; N-terminus and C-terminus assumed) was tested, and the IC50 ([1]; δ:β binding, 50% inhibition, plate binding assay) was about 3050 µM, the “Doubling time log phase” value (B. subtilis IH 6140; [8]) was 187 Min and the “Increase in lag phase” value (B. subtilis IH 6140; [8]) was 120 min. For the same compound, the “effect on growth rate during log phase of B. subtilis” value (B. subtilis IH 6140; peptide 1 mg/ml) was “decreasing the growth rate”, the “effect on lag phase of B. subtilis growth” value (B. subtilis IH 6140; peptide 1 mg/ml) was “increasing the lag phase” and the “inhibition of growth of B. subtilis” value (B. subtilis IH 6140; peptide 1 mg/ml, OD620 over 16 h) was “significantly inhibits”. For the same compound, the IC50 ([2]; α:β binding, 50% inhibition, plate inhibition assay) was about 343 µM.
Compound `CCC/C(=N\OC/C(Cl)=C/c1ccc(Cl)cc1)C1C(=O)CC(C)(C)CC1=O` [Peptide 07877] has an inhibition at 35 µg/mL ([3]; ATCC25923, test conc 35 μg/ml, A620, read-out: percent growth inhibition S. aureus) of 84.7%, an inhibition at 35 µg/mL [5] of 3.9% and an inhibition at 35 µg/mL ([4]; ATCC33186, test conc 35 μg/ml, A620, read-out: percent growth inhibition E. faecalis) of 59.6%. The inhibition at 35 µg/mL (E. coli ATCC 35218) was 17.6% and the inhibition at 35 µg/mL [6] was 8.3%.

— patent US20040132121A1, “Method of identifying antibacterial compounds” (priority 2000, published 2004)
